In patent US20060166189A1, “Methods for detecting invasion of a cell” (priority 2002, published 2006):

Test system: HeLa cells
Type: cell-based

cytosine arabinose [Ara C]
effect on β-galactosidase expression from vSC8 (late vaccinia promoter P11): completely blocked
